# Measured values reported in US20170173052A1, “METHODS OF TREATING OVARIAN CANCER” (Cipla Limited, priority 2015, published 2017).
# pIC50: −log10 of the molar value. Read-outs that look alike come from different tables or passages of the source.
# What was measured:
# IGR-OV1 [1] = assay: In vitro cytotoxicity 3D clonogenic assay; type: cell-based, human; conditions: based on relative IC50
# Protocol: (§1) In the present study methacycline and the reference compound paclitaxel were investigated for anticancer activity ex vivo in eight human tumor cell lines of ovarian cancer. Tests were carried out using a 3D clonogenic assay in 96-well format with image based read-out. The aim of the study was to investigate antitumor potency and tumor type selectivity of the compound. Cell lines were routinely passaged one or twice weekly. All cells were grown at 37° C. in a humidified atmosphere with 5% CO2 in RPMI 1640 medium (Biochrom) supplemented with 10% (v/v) fetal calf serum and 0.1 mg/mL gentamicin. The percentage of viable cells was determined in a Neubauer-hemocytometer using trypan blue exclusion.
# (§2) The clonogenic assay was carried out in a 96 well plate format using ultra low attachment plates. For each test, cells were prepared as described above and assay plates were prepared as follows: each test well contained a layer of semi-solid medium with tumor cells (50 μL), and a second layer of medium supernatant with or without test compound (100 μL). The cell layer consisted of 2·10^3 to 3·10^3 tumor cells per well, which were seeded in 50 μL/well cell culture medium (IMDM, supplemented with 20% (v/v) fetal calf serum, 0.01% (w/v) gentamicin, and 0.4% (w/v) agar. After 24 hours the test compounds were added after serial dilution in cell culture medium, and left on the cells for the duration of the experiment (continuous exposure, 100 μl drug overlay). Test concentrations ranged from 0.01 μM to 316.2 μM (methacycline), and 0.000095 μM to 3 (paclitaxel). Every plate included six untreated control wells and drug-treated groups in duplicate at 9 concentrations. Cultures were incubated at 37° C. and 7.5% CO2 in a humidified atmosphere for 8 to 13 days and monitored closely for colony growth using an inverted microscope. Within this period, ex vivo tumor growth led to the formation of colonies with a diameter of >50 μm. At the time of maximum colony formation, counts were performed with an automatic image analysis system (Bioreader 5000-Wa Biosys GmbH). 48 hours prior to evaluation, vital colonies were stained with a sterile aqueous solution of 2-(4-iodophenyl)-3-(4-nitrophenyl)-5-phenyltetrazolium chloride (1 mg/ml, 100 μl/well)
# OVCAR-5 [2] = assay: In vitro cytotoxicity 3D clonogenic assay; type: cell-based, human; conditions: based on relative IC50
# Protocol: as §1, §2
# OVCAR3 = assay: In vitro cytotoxicity 3D clonogenic assay; type: cell-based, human; conditions: based on relative IC50 (individual IC50 <1/2 mean IC50)
# Protocol: as §1, §2
# OVXF SK-OV-3 = assay: In vitro combination study, 2D monolayer CellTiter-Blue, 5x5 matrix; type: cell-based; conditions: Homo sapiens, 96 h, single agent, four days, read-out: IC50, tumor cell viability, single agent
# Protocol: (§3) The objective of this study was to assess anti-tumor efficacy of methacycline in combination with paclitaxel in a 5×5 matrix combination format against various ovarian cancer cell lines. The compounds were tested in ovarian cell lines, namely OVXF A2780 and OVXF SK-OV-3, obtained from National Cancer Institute (Bethesda, Md., USA). OVXF SKOV-3 cells were obtained from American Type Culture Collection (Rockville, Md., USA). Authenticity of cell lines was confirmed at the DSMZ by STR analysis. Cell lines were routinely passaged once or twice weekly and maintained in culture for up to 20 passages. Cells were grown at 37° C. in a humidified atmosphere with 5% CO2 in RPMI 1640 medium (25 mM HEPES, with L-glutamine, Biochrom) supplemented with 10% (v/v) fetal calf serum and 0.1 mg/mL gentamicin. The percentage of viable cells was determined in a Neubauer-hemocytometer using trypan blue exclusion.
# The CellTiter-Blue® Cell Viability Assay (#G8081, Promega) was used according to manufacturer's instructions. Briefly, cells were harvested from exponential phase cultures, counted and plated in 96-well flat-bottom microtiter plates at a cell density of 4,000-8,000 cells/well depending on the cell line's growth rate. […] Following an incubation period of up to four hours, fluorescence (FU) was measured by using the Enspire Multimode Plate Reader (excitation λ=531 nm, emission λ=615 nm). […]
# [3] = tested on: eight human tumor cell lines of ovarian cancer; assay: In vitro cytotoxicity 3D clonogenic assay, panel; type: cell-based; conditions: for pIC50: Homo sapiens, continuous exposure 8 to 13 days
# Protocol: as §1
# as §2, with “48 hours prior to evaluation, vital colonies were stained with a sterile aqueous solution of 2-(4-iodophenyl)-3-(4-nitrophenyl)-5-phenyltetrazolium chloride (1 mg/ml, 100 μl/well)” left out
# [4] = tested on: eight selected human ovarian cancer cell lines; assay: In vitro cytotoxicity 2D assay (CellTiter-Blue cell viability), panel mean; type: cell-based; conditions: for pIC50: 96 h treatment, mean over eight ovarian cancer cell lines, read-out: geometric mean absolute IC50 value
# Text: (§4) In the present study the human ovarian cancer cell lines OVXF 899, OVXF 1023, A2780, SK-OV-3, OVCAR-3, IGR-OV1, OVCAR-5 and NCI/ADR-RES were used. OVXF 899 and OVXF 1023 were established at Oncotest, Germany from the corresponding human patient derived xenograft. A2780, IGR-OV1, NCl/ADR-RES, OVCAR-3 and OVCAR-5 were kindly provided by the NCI (National Cancer Institute, Bethesda, Md., USA). SK-OV-3 was purchased from ATCC (Rockville, Md., USA). Authenticity of cell lines was confirmed at the DSMZ by STR (short tandem repeat) analysis, a PCR based DNA-fingerprinting methodology. Cell lines were routinely passaged once or twice weekly and maintained in culture for up to 20 passages. All cells were grown at 37° C. in a humidified atmosphere with 5% CO2 in RPMI 1640 medium (25 mM HEPES, with L-glutamine, #FG1385, Biochrom, Berlin, Germany) supplemented with 10% (v/v) fetal calf serum (Sigma, Taufkirchen, Germany) and 0.1 mg/mL gentamicin (Life Technologies, Karlsruhe, Germany).
# (§5) The CellTiter-Blue® Cell Viability Assay (#G8081, Promega) was used according to manufacturer's instructions. Briefly, cells were harvested from exponential phase cultures, […] on the cell line's growth rate. After a 24 h recovery period to allow the cells to resume exponential growth, test compounds were added.
# (§6) Following an incubation period of up to four hours, fluorescence (FU) was measured by using the Enspire Multimode Plate Reader (excitation λ=531 nm, emission λ=615 nm). For calculations, the mean values of duplicate/six fold (untreated control) data were used. Sigmoidal concentration-response curves were fitted to the data points (T/C values) obtained for each cell line using 4 parameter non-linear curve fit (Oncotest Warehouse Software).
# The in vitro anti-tumor activity of methacycline in eight selected human ovarian cancer cell lines were evaluated. […] Anti-tumor activity was assessed by using the CellTiter-Blue® Cell Viability Assay. Potency is expressed as absolute IC50 and relative IC50 values, calculated by non-linear regression analysis. […]
# OVXF IGR-OV1 = assay: In vitro combination study, 2D monolayer CellTiter-Blue, 5x5 matrix; type: cell-based, human; conditions: single agent, four days, read-out: IC50, tumor cell viability, single agent
# Protocol: as §3
# (§7) The CellTiter-Blue® Cell Viability Assay (#G8081, Promega) was used according to manufacturer's instructions. Briefly, cells were harvested from exponential phase cultures, counted and plated in 96-well flat-bottom microtiter plates at a cell density of 4,000-8,000 cells/well depending on the cell line's growth rate. After a 24 h recovery period to allow the cells to resume exponential growth, 10 μL of culture medium (twelve control wells/plate) or of culture medium with test compound were added, and treatment continued for four days. After four days treatment of cells, 20 μl/well CellTiter-Blue® reagent was added. Following an incubation period of up to four hours, fluorescence (FU) was measured by using the Enspire Multimode Plate Reader (excitation λ=531 nm, emission λ=615 nm). […]
# (§8) In the present study, methacycline was tested alone and in combination with paclitaxel in order to investigate the ability to inhibit tumor cell growth of ovarian cancer cell lines in a 5×5 matrix combination format. Efficacy of methacycline combined with paclitaxel was assessed by measuring tumor cell viability using a 2D monolayer assay in cell lines OVXF A2780, OVXF IGR-OV1, OVXF SK-OV-3.
# OVXF 899L = assay: In vitro cytotoxicity 3D clonogenic assay; type: cell-based, human
# Protocol: as §1, §2
# SK-OV-3 [5] = assay: In vitro cytotoxicity 3D clonogenic assay; type: cell-based, human; conditions: based on relative IC50 (individual IC50 <1/2 mean IC50)
# Protocol: as §1, §2
# NCI-ADR-RES = assay: In vitro cytotoxicity 3D clonogenic assay; type: cell-based, human
# Protocol: as §1, §2
# OVXF 1023L = assay: In vitro cytotoxicity 3D clonogenic assay; type: cell-based, human
# Protocol: as §1, §2
# A2780 [6] = assay: In vitro cytotoxicity 3D clonogenic assay; type: cell-based, human; conditions: based on relative IC50 (individual IC50 <1/2 mean IC50)
# Protocol: as §1, §2
# IGR-OV1 [7] = assay: In vitro cytotoxicity 2D assay (CellTiter-Blue cell viability); type: cell-based, human; conditions: 96 h treatment, read-out: absolute IC50
# Text: as §4, §5, §6
# (§9) The in vitro anti-tumor activity of methacycline in eight selected human ovarian cancer cell lines were evaluated. The test compounds was applied at 10 concentrations in half-log increments up to 300 μM. As a reference compound paclitaxel was tested in parallel. Cells were treated for 96 h with the test compounds. Anti-tumor activity was assessed by using the CellTiter-Blue® Cell Viability Assay. Potency is expressed as absolute IC50 and relative IC50 values, calculated by non-linear regression analysis. Results are depicted in FIGS. 1-4.
# OVCAR-3 = assay: as above; type: cell-based, human; conditions: 96 h treatment, read-out: absolute IC50
# Text: as §4, §5, §6, §9
# NCI/ADR-RES = assay: as above; type: cell-based, human; conditions: 96 h treatment, read-out: absolute IC50
# Text: as §4, §5, §6, §9
# SK-OV-3 [8] = assay: as above; type: cell-based, human; conditions: 96 h treatment, read-out: absolute IC50
# Text: as §4, §5, §6, §9
# OVCAR-5 [9] = assay: as above; type: cell-based, human; conditions: 96 h treatment, read-out: absolute IC50
# Text: as §4, §5, §6, §9
# A2780 [10] = assay: as above; type: cell-based, human; conditions: 96 h treatment, read-out: absolute IC50
# Text: as §4, §5, §6, §9
# [11] = tested on: ovarian cancer cell lines A2780, OVCAR3, OVCAR-5, and SK-OV-3; assay: In vitro cytotoxicity 3D clonogenic assay, responding lines; type: cell-based, human; conditions: range over A2780, OVCAR3, OVCAR-5, SK-OV-3, read-out: IC50 values, inhibition of colony formation
# Protocol: as §1
# The clonogenic assay was carried out in a 96 well plate format using ultra low attachment plates. For each test, cells were prepared as described above and assay plates were prepared as follows: each test well contained a layer of semi-solid medium with tumor cells (50 μL), and a second layer of medium supernatant with or without test compound (100 μL). […] Cultures were incubated at 37° C. and 7.5% CO2 in a humidified atmosphere for 8 to 13 days and monitored closely for colony growth using an inverted microscope. […]
# OVXF A2780 = assay: In vitro combination study, 2D monolayer CellTiter-Blue, 5x5 matrix; type: cell-based, human; conditions: single agent, four days, read-out: IC50, tumor cell viability, single agent
# Protocol: as §3, §7, §8
compound,measurement,setting,value
CC(=O)O[C@H]1C(=O)[C@@]2(C)[C@H]([C@H](OC(=O)c3ccccc3)[C@]3(O)C[C@H](OC(=O)[C@H](O)[C@@H](NC(=O)c4ccccc4)c4ccccc4)C(C)=C1C3(C)C)[C@]1(OC(C)=O)CO[C@@H]1C[C@@H]2O [paclitaxel],activity against colony formation,IGR-OV1 [1],above average activity
same,activity against colony formation,OVCAR-5 [2],above average activity
same,activity against colony formation,OVCAR3,above average activity
same,pIC50,OVXF SK-OV-3,8.05
same,pIC50,"[3]; read-out: mean absolute IC50 value, colony formation",7.11
same,pIC50,"[3]; read-out: mean relative IC50 value, colony formation",7.92
same,bottom plateaus of the concentration-effect curves of responding tumor models,[3]; responding tumor models,0% to 60
same,pIC50,[4]; Homo sapiens,7.35
same,pIC50,"OVXF IGR-OV1; Homo sapiens, IGROV-1, 96 h",8.52
methacycline,activity against colony formation,IGR-OV1 [1],No activity
same,activity against colony formation,OVXF 899L,No activity
same,activity against colony formation,SK-OV-3 [5],above average activity
same,activity against colony formation,NCI-ADR-RES,No activity
same,activity against colony formation,OVXF 1023L,No activity
same,activity against colony formation,OVCAR3,above average activity
same,activity against colony formation,A2780 [6],above average activity
same,pIC50,IGR-OV1 [7],5.10
same,pIC50,OVCAR-3,4.76
same,pIC50,NCI/ADR-RES,3.98
same,pIC50,SK-OV-3 [8],4.73
same,pIC50,OVCAR-5 [9],4.84
same,pIC50,A2780 [10],4.64
same,pIC50,[11],4.15 to 4.27
same,pIC50,[4],4.57
same,difference between the most sensitive and most resistant cell line,[4]; IGR-OV1 vs NCI/ADR-RES IC50,13 fold
same,pIC50,OVXF IGR-OV1,4.36
same,pIC50,OVXF A2780,4.46
